{"source": "patent US6248367A", "about": "“Bovine excretion extracts having anticancer and anti-inflammatory activity and process for preparing the same” (Kim; Bok Deuk, priority 1998, dated 2001)", "test": "in vitro", "settings": "rat, erythrocytes", "procedure": "Cytotoxicity of the bovine excretion extracts according to the present invention was tested by measuring degree of hemolysis of erythrocytes. To erytlirocytes isolated from rats, the extracts prepared in example 1 were added and then, the mixture was cultivated at a temperature of 37° C. for 30, 60 and 120 minutes, respectively. After centrifugation, 400 μl of medium was taken and then reagent for detection of hemolysis was added thereto. Then, absorbance was read at 540 nm to determine degree of hemolysis. Degree of hemolysis (%) is calculated as follows: [formula]\nErythrocytes treated with menadione (positive control) were measured on degree of hemolysis, for the purpose of comparison with the bovine excretion extracts prepared in example 1. Menadione is a known compound which induce hemolysis of erythrocytes."}
{"smiles": "CC1=CC(=O)c2ccccc2C1=O", "note": "[menadione, Menadione]", "values": [{"measurement": "hemolysis at 0 h", "value": 0, "unit": "%"}, {"measurement": "hemolysis at 0.5 h", "value": "1.6 ± 1.3", "unit": "%"}, {"measurement": "hemolysis at 1 h", "value": "2.3 ± 0.4", "unit": "%"}, {"measurement": "hemolysis at 2 h", "value": "65.3 ± 4.8", "unit": "%"}]}
